Test results taken from PubChem BioAssay (NCI).
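Growth conditions: 96-well plates. Treatment: test compound, 48 hours, 5 concentrations. Analysis: linear interpolation between bracketing concentrations; unreached endpoints set to highest concentration. TGI denotes the concentration required for complete inhibition of growth.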

Experiments:
Test in all cases: growth of human tumour cells (NCI), 48 h
[1] = test system: 786-0 renal
[2] = test system: A549 NSCLC
[3] = test system: HCT-116 colon
[4] = test system: HS 578T breast
[5] = test system: LOX IMVI melanoma
[6] = test system: MCF7 breast
[7] = test system: NCI-H23 lung
[8] = test system: NCI-H460 lung
[9] = test system: SF-268 CNS
[10] = test system: SF-539 CNS
[11] = test system: SK-MEL-2 melanoma
[12] = test system: SR leukemia
[13] = test system: TK-10 renal
[14] = test system: UO-31 renal
[15] = test system: SNB-75 CNS

Row | SMILES | TGI [1] [µM] | TGI [2] [µM] | TGI [3] [µM] | TGI [4] [µM] | TGI [5] [µM] | TGI [6] [µM] | TGI [7] [µM] | TGI [8] [µM] | TGI [9] [µM] | TGI [10] [µM] | TGI [11] [µM] | TGI [12] [µM] | TGI [13] [µM] | TGI [14] [µM] | TGI [15] [µM]
1 | COC(=O)c1c(O)ccc2c1C1(Cc3ccccc3C1=O)C(O)O2 (configuration not stated) | 30.2 | 69.9 | 32.6 | 61 | > 100 | > 100 | > 100 | > 100 | 51.6 | 55.7 | > 100 | 25.3 | 52.6 | 85 | –
2 | C#CCOCC12C=CC(O1)C1C(=O)OCC12 (configuration not stated) | > 100 | > 100 | > 100 | > 100 | > 100 | > 100 | > 100 | > 100 | > 100 | > 100 | – | > 100 | > 100 | > 100 | > 100
3 | O=C(/C=C/c1csc(-c2ccccc2)n1)NCc1ccc(C(=O)NCc2ccccc2)cc1 | > 100 | > 100 | > 100 | > 100 | > 100 | > 100 | > 100 | > 100 | > 100 | > 100 | > 100 | > 100 | 85.8 | > 100 | 60.5
4 | COc1nc(N)c(N=CC(OC(C)=O)C(OC(C)=O)C(COC(C)=O)OC(C)=O)c(=O)n1C (configuration not stated) | > 100 | > 100 | > 100 | > 100 | > 100 | > 100 | > 100 | > 100 | > 100 | > 100 | > 100 | > 100 | > 100 | > 100 | > 100
5 | CC(C)(CC(O)C#N)/[N+]([O-])=[N+](\[O-])C(C)(C)CC(O)C#N (configuration not stated) | 47.5 | > 100 | 32.7 | > 100 | 42.7 | 65.5 | 66.8 | > 100 | 83.1 | – | > 100 | 49.5 | 96 | 98.1 | 76.2
6 | COC(=O)c1c(OC(C)=O)ccc2c1c1c(OC(C)=O)c3ccccc3c(OC(C)=O)c1n2Cc1ccccc1 | 37.2 | 34.2 | 11.5 | > 50 | – | > 50 | 18.3 | > 50 | 19.4 | 4.04 | 6.81 | > 50 | > 50 | 24.7 | 6.61
7 | COc1cccc(N2C(=O)C3c4[nH]c5ccc(C)cc5c4C4CCC(C(C)(C)C)CC4C3C2=O)c1 (configuration not stated) | – | > 10 | 4.75 | > 10 | 3.98 | > 10 | 5.74 | 4.43 | > 10 | 7.41 | > 10 | 4.03 | > 10 | > 10 | 7.36
8 | CCNC1=C(NC(=O)CC)C(=O)c2ccccc2C1=O | > 100 | > 100 | > 100 | > 100 | – | > 100 | > 100 | > 100 | > 100 | > 100 | – | > 100 | > 100 | – | > 100
9 | CC1(O)OC(=O)C2=C1CCC1C2CCC2(C)C(O)CCC12 (configuration not stated) | > 100 | > 100 | > 100 | > 100 | > 100 | > 100 | > 100 | > 100 | > 100 | > 100 | – | > 100 | > 100 | > 100 | –
10 | Cc1ccc2c(=O)cc(-c3ccc(-c4ccccc4)s3)[nH]c2n1 | > 100 | > 100 | > 100 | > 72.6 | > 100 | > 100 | > 100 | > 100 | > 100 | 36.6 | > 100 | 8.35 | > 91.4 | 0.219 | > 100
11 | COC(=O)C1=C(C)N2[C@H](C(=O)O)CO[C@@]2(C)[C@H](C(=O)OC)[C@H]1c1cccc([N+](=O)[O-])c1 | > 100 | > 100 | > 100 | > 100 | – | > 100 | > 100 | > 100 | > 100 | > 100 | > 100 | > 100 | > 100 | > 100 | > 100
12 | O=C(Nc1cccc(F)c1)c1cc2ccc(O)cc2oc1=Nc1ccccc1F | 17.1 | 13.8 | 12.9 | 14.1 | 7.15 | 25.7 | 5.86 | > 100 | 15.4 | 27 | 18.7 | 39.5 | – | 14.2 | –
13 | CC[C@@H](/C=C\CCC(=O)C[C@H](O)CCC=C(C)C)O[Si](C(C)C)(C(C)C)C(C)C | > 100 | > 100 | > 100 | > 100 | > 100 | > 100 | > 100 | > 100 | > 100 | > 100 | > 100 | > 100 | > 100 | > 100 | > 100
14 | COc1ccc(N=C2C(=Nc3ccc(OC)cc3)N(c3ccccc3)C(=S)N2N=C=C2Sc3ccccc3N2C)cc1 | > 100 | > 100 | > 100 | > 100 | – | > 100 | > 100 | > 100 | > 100 | > 100 | > 100 | > 100 | > 100 | > 100 | –
15 | CCN(CC)CCNCc1cc(Cl)cc2c1OCOC2 | – | > 10 | > 10 | > 10 | > 10 | > 10 | > 10 | > 10 | > 10 | > 10 | > 10 | > 10 | > 10 | > 10 | > 10
16 | Brc1c(C#CCC2CCCCC2)ccc(C#CCC2CCCCC2)c1Br | > 100 | > 100 | – | > 100 | > 100 | > 100 | – | > 100 | > 100 | > 100 | > 100 | > 100 | > 100 | – | > 100
17 | C[C@H]1C=C2[C@@H]3CC(C)(C(=O)O)CC[C@]3(C)CC[C@]2(C)[C@]2(C)CC[C@H]3C(C)(C)[C@@H](OC(=O)c4cccc5c(=O)c6ccccc6[nH]c45)CC[C@]3(C)[C@@H]12 (some centres not stated) | > 100 | > 100 | > 100 | > 100 | > 100 | > 100 | > 100 | > 100 | > 100 | > 100 | > 100 | > 100 | > 100 | > 100 | > 100
18 | COc1cc([C@@H]2c3cc(O)c(OC)cc3C=C(C(N)=O)[C@H]2C(N)=O)ccc1O | > 100 | > 100 | > 100 | > 100 | > 100 | > 100 | > 100 | > 100 | > 100 | > 100 | – | > 100 | – | > 100 | > 100
19 | OC(c1ccc(-c2ccccc2)cc1)C(F)(F)c1nc2ccccc2o1 (configuration not stated) | 74.6 | > 100 | > 100 | 70.2 | > 100 | > 100 | > 100 | > 100 | > 100 | > 72.3 | > 100 | > 100 | > 100 | > 100 | > 100
20 | CCOC(=O)c1ccc(C(=O)C(C(C)=O)C(=O)OC(C)(C)C)[nH]1 (configuration not stated) | > 100 | > 100 | > 100 | > 100 | > 100 | > 100 | > 100 | > 100 | > 100 | – | > 100 | > 100 | – | > 100 | > 100
21 | COc1ccc(-n2cnc3c(NC(CCSC)C(=O)O)ncnc32)cc1 (configuration not stated) | > 100 | > 100 | > 100 | > 100 | > 100 | > 100 | > 100 | > 100 | > 100 | – | > 100 | > 100 | > 100 | > 100 | > 100
22 | Cc1ccc2nc(NC(=O)/C(Cc3nc4ccc(Cl)cc4[nH]c3=O)=N\NC(C)(C)C)sc2c1 | > 100 | > 100 | > 100 | 73 | > 100 | > 100 | > 100 | > 100 | > 100 | > 100 | > 100 | > 100 | – | > 100 | 83.1
23 | C/C(=C/CC[C@]1(CO)CC[C@]2(CO)[C@H](CC[C@@H]3[C@@]4(C)CC[C@H](OC5OCC(O)C(O)C5OC5OC(CO)C(O)C(O)C5O)C(C)(C)[C@@H]4CC[C@]32C)[C@H]1O)CO (some centres not stated) | > 100 | > 100 | > 100 | > 100 | > 100 | > 100 | > 100 | > 100 | > 100 | > 100 | – | > 100 | > 100 | > 100 | > 100
24 | O=C(CC(=O)Nc1ccccc1)N/N=C/c1cc(N=Nc2ccc(Br)cc2)ccc1O | > 10 | > 10 | – | > 10 | > 10 | > 10 | > 10 | > 10 | > 10 | > 10 | – | 9.75 | > 10 | 7.93 | > 10
